Source: patent publication US20180016259A1, “QUINAZOLINE INHIBITORS OF ACTIVATING MUTANT FORMS OF EPIDERMAL GROWTH FACTOR RECEPTOR” (AstraZeneca AB, priority 2013, published 2018)
Like-named read-outs stand apart in the source and are kept apart here. Values belong to the compound of their own block, whether it stands above or below them.

Experiments:
[1] = Brain blood barrier penetration assay (short oral absorption model with in vitro blood and brain binding); format: in vivo; details: male Han Wistar rats, oral 2 mg/kg in 1% methylcellulose; for Kp uu: rat
Description: Both Kp,uu brain and Kp,uu CSF should be the main parameters measured and optimized in CNS drug discovery (Di L et al., Journal of Medicinal Chemistry [2013], 56: 2-12). Kp,uu brain, the relationship between concentrations of unbound drug in brain and in blood, predicts drug action on metastatic tumors in brain Leptomeningeal metastasis (LM) results from metastatic spread of cancer to the leptomeninges, giving rise to central nervous system dysfunction. Kp,uu CSF represents the distribution of drug in CSF as compared to that in blood, which drives drug response during leptomeningeal metastasis treatment.
In vitro blood and brain binding assay was carried out on a HT-Dialysis plate (Gales Ferry, Conn.) with semi-permeable membrane. Diluted blood (1:1 with DPBS pH7.4) and brain homogenate (1:3 with DPBS pH7.4) were spiked with 5 μM test compound (in triplicate) and dialyzed against equal volume of 150 μL 100 mM PBS buffer (pH7.4) at 37° C. for 4 hours in a slowly rotated plate. At the end of incubation, a 50 μL aliquot from the receiver side and a […] from the donor chamber were taken. The 5 μL sample was further diluted with 45 μL of blank blood or brain homogenate. Paired samples were matrix-matched with either buffer or blank blood/brain homogenate and mixed for 2 min, and then precipitated with 150 μL cold acetonitrile with 100 ng/mL tolbutamide as internal standard. After centrifuging at 4000 rpm for 20 min, supernatant was diluted with 0.1% formic acid aqueous solution and analyzed for LC/MS/MS (API 4000, Applied Biosystems, Foster City). […]. D is dilution factor.
A Short oral absorption (SOA) model is an in-vivo screening model to identify brain penetration of a compound. Six male Han Wistar rats purchased from Beijing Vital River were orally dosed with the compound at 2 mg/kg in 1% methylcellulose. At 0.25, 0.5, 1, 2, 4 and 7 hour post-dose, cerebral spinal fluid (CSF) was collected from cisterna magna, and blood samples (>60 μL/time point/each site) were collected via cardiac puncture, into separate EDTA […] tubes, and then immediately diluted with 3-fold volume of water. Brain tissue was harvested and homogenized in 3× volume of 100 mM phosphate buffered saline (pH7.4). All samples were stored at ˜−70° C. prior to LC/MS/MS analysis.
Standards were prepared by spiking blank blood, brain homogenate and artificial CSF covering 0.2 to 500 ng/mL. Homogenized brain tissue along with blood samples were precipitated by adding 3-fold volume of cold acetonitrile containing internal standard (40 ng/mL Dexamethasone and 40 ng/mL Diclofenac), and 10 μL of CSF samples were precipitated with 100 μL of cold acetonitrile containing internal standard. After 2 min vortex and 5 min centrifugation at 14,000 rpm, supernatant was analyzed by LC/MS/MS (API 4000, Applied Biosystems, Foster City). Two sets of standard curves were run at the beginning and end of each batch from blood sample analysis. For brain and CSF samples, one standard curve was analyzed along with test samples.
Total brain levels, expressed as brain/blood ratio (Kp,brain) were measured by AUCbrain/AUCblood in rodents after oral administration. Free fraction of test compound in biological matrix was determined by in vitro blood and brain binding assay. Kp,uu brain and Kp,uu CSF were calculated by the following equation: Kp,uu brain=AUCbrain/AUCblood×(fu,brain/fu.blood) and Kp,uu CSF=AUCCSF/(AUCblood×fu.blood).

[2] = literature reports; cited from earlier work

Compound: COc1cc2ncnc(Nc3cccc(Cl)c3F)c2cc1OC(=O)N1CCN(C)C[C@H]1C [Example 1, 4-[(3-Chloro-2-fluorophenyl)amino]-7-methoxyquinazolin-6-yl (2R)-2,4-dimethylpiperazine-1-carboxylate]
Kp uu ([1]; male, Han Wistar, in vivo, po, 2 mg/kg, AUCCSF/(AUCblood x fu,blood), read-out: Kp, uu CSF): 1 to 1.3
Kp uu ([1]; male, Han Wistar, in vivo, po, 2 mg/kg, AUCbrain/AUCblood x (fu,brain/fu,blood), read-out: Kp, uu brain): 0.8 to 1.3

Kp uu ([1]; CSF / blood, AUCCSF/(AUCblood x fu,blood), read-out: Kp, uu CSF): 2.6
Compound: COc1cc2ncnc(Nc3cccc(Cl)c3F)c2cc1OC(=O)N1CCN(C)C[C@@H]1C [Example 3, 4-[(3-Chloro-2-fluorophenyl)amino]-7-methoxyquinazolin-6-yl (2S)-2,4-dimethylpiperazine-1-carboxylate]

Compound: CN(C)C/C=C/C(=O)Nc1cc2c(Nc3ccc(F)c(Cl)c3)ncnc2cc1O[C@H]1CCOC1 [afatinib]
adverse effects, such as skin rash and diarrhoea, share of NSCLC patients treated [2]: > 90%

Compound: COc1cc2ncnc(Nc3ccc(F)c(Cl)c3)c2cc1NC(=O)/C=C/CN1CCCCC1 [dacomitinib]
adverse effects, such as skin rash and diarrhoea, share of NSCLC patients treated [2]: > 90%

Kp, uu CSF ([1]; AUCCSF/(AUCblood x fu,blood)): Below quantification limit
Kp uu ([1]; AUCbrain/AUCblood x (fu,brain/fu,blood), read-out: Kp, uu brain): 0.13
Compound: CNC(=O)CN1CCC(Oc2cc3c(Nc4cccc(Cl)c4F)ncnc3cc2OC)CC1 [sapitinib]
